Consider 3 compounds from patent US20110009411A1, “THERAPEUTIC COMPOSITIONS AND THE USE THEREOF” (Gilead Sciences ,Inc., priority 2007, published 2011).

The data set can be described thus: Steady-state pharmacokinetic interaction study of the Compound and lopinavir/r (LPV/r). As to conditions: healthy volunteers. The format is in vivo, human.
[1] abbreviates: the Compound 125 mg QD + LPV/r 400/100 mg BID vs the Compound/r 125/100 mg QD (coadministration:alone), 14-day periods, n = 14.

With `CC(C)c1nc(CN(C)C(=O)NC(C(=O)NC(Cc2ccccc2)CC(O)C(Cc2ccccc2)NC(=O)OCc2cncs2)C(C)C)cs1` (stereo not shown) [RTV, 1,3-thiazol-5-ylmethyl[3-hydroxy-5-[3-methyl-2-[methyl-[(2-propan-2-yl-1,3-thiazol-4-yl)methyl]carbamoyl]amino-butanoyl]amino-1,6-diphenyl-hexan-2-yl]aminoformate, reference compound], for the setting “steady state”, the “exposures when coadministered with the Compound” value is on record as “unaltered”.

For the compound `Cc1cccc(C)c1OCC(=O)N[C@@H](Cc1ccccc1)[C@@H](O)C[C@H](Cc1ccccc1)NC(=O)[C@H](C(C)C)N1CCCNC1=O` [LPV, (2S)—N-[(2S,4S,5S)-5-{[2-(2,6-dimethyl-phenoxy)acetyl]amino}-4-hydroxy-1,6-diphenyl-hexan-2-yl]-3-methyl-2-(2-oxo-1,3-diazinan-1-yl)butanamide, reference compound], for the setting “steady state”, the “LPV trough concentrations when coadministered with the Compound” value is recorded as “maintained above recommended target troughs” and the “exposures when coadministered with the Compound” value is reported as “unaltered”.

`COc1cc2c(cc1Cc1cccc(Cl)c1F)c(=O)c(C(=O)O)cn2[C@H](CO)C(C)C` [the Compound, 6-(3-chloro-2-fluorobenzyl)-1-[(2S)-1-hydroxy-3-methylbutan-2-yl]-7-methoxy-4-oxo-1,4-dihydroquinoline-3-carboxylic acid]: for the setting “steady state”, the “Compound exposures upon coadministration with LPV/r” value is “substantially elevated”. For the same compound, under setting [1], the “AUCtau % GMR (90% CI)” value is reported as 175%, the “Cmax % GMR (90% CI)” value is listed as 152% and the “Ctau % GMR (90% CI)” value was 238%.
